Reference: BindingDB's records for doi:10.3109/14756360903179443 (Institute of Chemical Technology, 2010)
Structures can show the parent of a compound that is named as a salt.

What was measured:
Assay in all cases: Biological Assay
[1] = target: T1, Bifunctional dihydrofolate reductase-thymidylate synthase (Toxoplasma gondii, UniProt Q07422)
T1 sequence (Q07422 whole entry): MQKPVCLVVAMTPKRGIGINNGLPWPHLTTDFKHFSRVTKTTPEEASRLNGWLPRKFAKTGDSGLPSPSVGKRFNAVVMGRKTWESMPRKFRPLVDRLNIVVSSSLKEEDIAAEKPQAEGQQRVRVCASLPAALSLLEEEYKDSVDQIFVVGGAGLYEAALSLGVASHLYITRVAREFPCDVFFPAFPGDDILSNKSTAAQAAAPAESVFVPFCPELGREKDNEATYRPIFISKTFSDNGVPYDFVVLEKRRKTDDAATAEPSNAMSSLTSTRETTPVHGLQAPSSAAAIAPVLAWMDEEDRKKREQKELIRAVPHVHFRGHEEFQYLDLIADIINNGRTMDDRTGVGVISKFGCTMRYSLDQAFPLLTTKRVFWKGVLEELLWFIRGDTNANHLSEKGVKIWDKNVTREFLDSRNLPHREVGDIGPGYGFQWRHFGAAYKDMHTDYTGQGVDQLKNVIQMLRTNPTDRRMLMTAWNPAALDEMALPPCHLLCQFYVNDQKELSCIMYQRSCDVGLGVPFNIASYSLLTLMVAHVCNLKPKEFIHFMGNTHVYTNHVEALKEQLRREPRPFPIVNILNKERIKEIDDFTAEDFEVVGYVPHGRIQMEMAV
Protocol: (§1) The synthesized compounds were evaluated for their ability to inhibit DHFR from pc, tg, ma, and rl using a continuous spectrophotometric assay measuring oxidation at […] of NADPH at 37°C under conditions of saturating substrate and cofactor as previously described [Broughton et al., Antimicrob. Agents Chemother., 35:1348-55; Chio et al., Antimicrob. Agents Chemother., 37:1914-23].

[2] = target: T2, Dihydrofolate reductase (Mycobacterium avium, UniProt O30463)
T2 sequence (O30463 whole entry): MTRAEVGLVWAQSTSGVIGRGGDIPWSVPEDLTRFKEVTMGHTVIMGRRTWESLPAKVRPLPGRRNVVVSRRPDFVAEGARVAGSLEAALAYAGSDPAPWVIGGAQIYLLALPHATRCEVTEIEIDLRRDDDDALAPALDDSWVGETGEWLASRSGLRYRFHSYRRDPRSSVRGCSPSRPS
Protocol: as §1

[3] = target: T3, Dihydrofolate reductase (Pneumocystis carinii, UniProt P16184)
T3 sequence (P16184 whole entry): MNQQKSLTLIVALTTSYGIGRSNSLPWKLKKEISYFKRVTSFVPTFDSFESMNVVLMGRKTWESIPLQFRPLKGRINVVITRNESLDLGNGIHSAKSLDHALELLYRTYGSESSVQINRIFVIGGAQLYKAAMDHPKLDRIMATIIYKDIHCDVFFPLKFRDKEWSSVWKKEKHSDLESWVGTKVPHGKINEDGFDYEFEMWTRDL
Protocol: as §1

[4] = target: T4, Dihydrofolate reductase (Rattus norvegicus, UniProt Q920D2)
T4 sequence (Q920D2 whole entry): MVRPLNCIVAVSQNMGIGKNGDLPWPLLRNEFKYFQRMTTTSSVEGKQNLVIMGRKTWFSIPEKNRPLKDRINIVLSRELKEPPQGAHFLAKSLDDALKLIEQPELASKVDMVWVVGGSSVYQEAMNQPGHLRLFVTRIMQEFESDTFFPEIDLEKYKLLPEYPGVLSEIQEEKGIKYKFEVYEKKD
Protocol: as §1

Structure (SMILES)	IC50 [1]	IC50 [2]	IC50 [3]	IC50 [4]
CC1(C)N=C(N)N=C(N)N1c1ccc(OCc2ccccc2)cc1	0.032 µM	14.4 µM	5.4 µM	0.12 µM
CC1(C)N=C(N)N=C(N)N1c1ccc(OCc2ccc(Cl)cc2Cl)cc1 [1-(4-(2,4-Dichlorobenzyloxy)phenyl)-6,6-dimethyl-1-,6-dihydro-1,3,5-triazine-2,4-diamine hydrochloride (B2-04)]	0.029 µM	11.2 µM	1.08 µM	0.018 µM
CC1(C)N=C(N)N=C(N)N1c1ccc(OCc2ccccc2Cl)cc1 [1-(4-(2-Chlorobenzyloxy)phenyl)-6,6-dimethyl-1,6-dihydro-1,3,5-triazine-2,4-diamine hydrochloride (B2-03)]	0.04 µM	10.3 µM	2.53 µM	0.073 µM
CC1(C)N=C(N)N=C(N)N1c1ccc(OCc2cccc(Cl)c2)cc1 [1-(4-(3-Chlorobenzyloxy)phenyl)-6,6-dimethyl-1,6-dihydro-1,3,5-triazine-2,4-diamine hydrochloride (B2-02)]	0.02 µM	4.08 µM	1.11 µM	0.034 µM
CC1(C)N=C(N)N=C(N)N1c1ccc(OCc2ccc(Br)cc2)cc1 [1-(4-(4-Bromobenzyloxy)phenyl)-6,6-dimethyl-1,6-dihydro-1,3,5-triazine-2,4-diamine hydrochloride (B2-05)]	0.033 µM	7.32 µM	0.829 µM	0.033 µM
COc1ccc(COc2ccc(N3C(N)=NC(N)=NC3(C)C)cc2)cc1 [1-(4-(4-Methoxybenzyloxy)phenyl)-6,6-dimethyl-1,6-dihydro-1,3,5-triazine-2,4-diamine hydrochloride (B2-06)]	0.019 µM	3.38 µM	1.69 µM	0.048 µM
CC1(C)N=C(N)N=C(N)N1c1ccc(OCc2ccc(-c3ccccc3)cc2)cc1 [1-(4-(Biphenyl-4-ylmethoxy)phenyl)-6,6-dimethyl-1,6-dihydro-1,3,5-triazine-2,4-diamine hydrochloride (B2-07)]	0.012 µM	10.2 µM	0.403 µM	0.026 µM
CC1(C)N=C(N)N=C(N)N1c1ccc(OCCN2C(=O)c3ccccc3C2=O)cc1 [2-(2-(4-(4,6-Diamino-2,2-dimethyl-1,3,5-triazin-1(2H)-yl)phenoxy)ethyl)isoindoline-1,3-dione hydrochloride (A2-01)]	0.424 µM	44.6 µM	15.4 µM	1.16 µM
CC1(C)N=C(N)N=C(N)N1c1ccc(OCC(O)CN2C(=O)c3ccccc3C2=O)cc1 (stereo not given) [2-(3-(4-(4,6-Diamino-2,2-dimethyl-1,3,5-triazin-1(2H)-yl)phenoxy)-2-hydroxypropyl)isoindoline-1,3-dione hydrochloride (A2-04)]	0.523 µM	154 µM	34.6 µM	1.94 µM
CC1(C)N=C(N)N=C(N)N1c1ccc(OCCCN2C(=O)c3ccccc3C2=O)cc1 [2-(3-(4-(4,6-Diamino-2,2-dimethyl-1,3,5-triazin-1(2H)-yl)phenoxy)propyl)isoindoline-1,3-dione hydrochloride (A2-02)]	0.169 µM	35.2 µM	6.49 µM	0.556 µM
CC1(C)N=C(N)N=C(N)N1c1ccc(OCCCCN2C(=O)c3ccccc3C2=O)cc1 [2-(4-(4-(4,6-Diamino-2,2-dimethyl-1,3,5-triazin-1(2H)-yl)phenoxy)butyl)isoindoline-1,3-dione (A2-03)]	0.079 µM	8.9 µM	2.61 µM	0.033 µM
N=C(N)NC(=N)Nc1ccc(OCc2ccccc2)cc1 [N-[4-(Benzyloxy)phenyl]imidodicarbonimidic diamide hydrochloride (B1-01)]	132 µM	132 µM	132 µM	132 µM
NC(N)=N/C(N)=N/c1ccc(OCc2ccc(-c3ccccc3)cc2)cc1 [N-[4-(Biphenyl-4-ylmethoxy)phenyl]imidodicarbonimidic diamide hydrochloride (B1-07)]	111 µM	104 µM	104 µM	67 µM
N=C(N)NC(=N)Nc1ccc(OCCN2C(=O)c3ccccc3C2=O)cc1 [N-{4-[2-(1,3-Dioxo-1,3-dihydro-2H-isoindol-2-yl)ethoxy]phenyl}imidodicarbonimidic diamide hydrochloride (A1-01)]	40.3 µM	51.4 µM	51.4 µM	67.7 µM
N=C(N)NC(=N)Nc1ccc(OCCCN2C(=O)c3ccccc3C2=O)cc1 [N-{4-[3-(1,3-Dioxo-1,3-dihydro-2H-isoindol-2-yl)propoxy]phenyl}imidodicarbonimidic diamide hydrochloride (A1-02)]	135 µM	106 µM	106 µM	106 µM
NC(N)=N/C(N)=N/c1ccc(OCc2ccc(Cl)cc2Cl)cc1 [N-{4-[(2,4-Dichlorobenzyl)oxy]phenyl}imidodicarbonimidic diamide hydrochloride (B1-04)]	111 µM	111 µM	123 µM	27.9 µM
N=C(N)NC(=N)Nc1ccc(OCc2ccccc2Cl)cc1 [N-{4-[(2-Chlorobenzyl)oxy]phenyl}imidodicarbonimidic diamide hydrochloride (B1-03)]	9.95 µM	152 µM	293 µM	20.8 µM
NC(N)=N/C(N)=N/c1ccc(OCc2cccc(Cl)c2)cc1 [N-{4-[(3-Chlorobenzyl)oxy]phenyl}imidodicarbonimidic diamide hydrochloride (B1-02)]	58.5 µM	63.8 µM	104 µM	68.7 µM
COc1cccc(COc2ccc(NC(=N)NC(=N)N)cc2)c1 [N-{4-[(3-Methoxybenzyl)oxy]phenyl}imidodicarbonimidic diamide hydrochloride (B1-06)]	8.4 µM	15.5 µM	15.5 µM	14.7 µM
N=C(N)NC(=N)Nc1ccc(OCc2ccc(Br)cc2)cc1 [N-{4-[(4-Bromobenzyl)oxy]phenyl}imidodicarbonimidic diamide hydrochloride (B1-05)]	21.4 µM	127 µM	164 µM	74.9 µM
